“And” between values parts separate entries of the source, which are not always exact repeats. Equal values may be shown once. Toxic doses and inconclusive results are not listed.
Test system: L1210 leukemia ip in BDF1 mice, survival T/C
Assay: NCI In Vivo Anticancer Drug Screen. Data for tumor model L1210 Leukemia (intraperitoneal) in B6D2F1 (BDF1) mice
Settings: endpoint: mean survival time, higher = longer survival
In short: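 Value reflects the ratio of survival in compound-treated mice to survival in vehicle-treated controls, with both groups carrying the same transplanted tumor.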

[1] = dose: 100.0 mg/kg/injection, schedule: Q04DX003 (ip), vehicle: Klucel (hydroxypropylcellulose) (HPC)
[2] = dose: 200.0 mg/kg/injection, schedule: Q04DX003 (ip), vehicle: Klucel (hydroxypropylcellulose) (HPC)
[3] = dose: 400.0 mg/kg/injection, schedule: Q04DX003 (ip), vehicle: Klucel (hydroxypropylcellulose) (HPC)

With `c1ccc(N=Nc2ccnnc2)cc1` the T/C (dose: 50.0 mg/kg/injection, schedule: Q04DX002 (ip), vehicle: saline with Tween-80) was 102 % of control, the T/C (dose: 100.0 mg/kg/injection, schedule: Q04DX002 (ip), vehicle: saline with Tween-80) was 91 % of control and the T/C (dose: 200.0 mg/kg/injection, schedule: Q04DX002 (ip), vehicle: saline with Tween-80) was 105 % of control.

With `CN=C(N)c1ccc(NC(=O)c2ccc(C(=O)Nc3ccc(C(N)=NC)cc3)cc2)cc1` the T/C (dose: 1.9 mg/kg/injection, schedule: Q01DX Z (ip), vehicle: methylcellulose (MC)) was 102 % of control, the T/C (dose: 2.0 mg/kg/injection, schedule: Q01DX006 (iv), vehicle: saline) was 104 % of control and the T/C (dose: 2.0 mg/kg/injection, schedule: Q01DX Z (sc), vehicle: saline) was 101 % of control. The T/C (dose: 2.0 mg/kg/injection, schedule: Q02DX004 (im), vehicle: saline) was 103 % of control, the T/C (dose: 3.75 mg/kg/injection, schedule: Q01DX Z (ip), vehicle: methylcellulose (MC)) was 124 % of control and the T/C (dose: 4.0 mg/kg/injection, schedule: Q01DX006 (iv), vehicle: saline) was 103 % of control. For the same compound, the T/C (dose: 4.0 mg/kg/injection, schedule: Q01DX Z (sc), vehicle: saline) was 97 % of control, the T/C (dose: 4.0 mg/kg/injection, schedule: Q02DX004 (im), vehicle: saline) was 103 % of control and the T/C (dose: 5.5 mg/kg/injection, schedule: Q01DX Z (ip), vehicle: methylcellulose (MC)) was 177 % of control. For the same compound, the T/C (dose: 8.0 mg/kg/injection, schedule: Q01DX006 (iv), vehicle: saline) was 106 % of control, the T/C (dose: 8.0 mg/kg/injection, schedule: Q01DX010 (oral), vehicle: saline) was 106 % of control and the T/C (dose: 8.0 mg/kg/injection, schedule: Q01DX Z (sc), vehicle: saline) was 94 % of control. The T/C (dose: 8.0 mg/kg/injection, schedule: Q02DX004 (im), vehicle: saline) was 108 % of control, the T/C (dose: 15.0 mg/kg/injection, schedule: Q01DX Z (ip), vehicle: methylcellulose (MC)) was 150 % of control and 156 % of control and the T/C (dose: 16.0 mg/kg/injection, schedule: Q01DX010 (oral), vehicle: saline) was 97 % of control. The T/C (dose: 16.0 mg/kg/injection, schedule: Q01DX Z (sc), vehicle: saline) was 98 % of control, the T/C (dose: 16.0 mg/kg/injection, schedule: Q02DX004 (im), vehicle: saline) was 108 % of control and the T/C (dose: 30.0 mg/kg/injection, schedule: Q01DX Z (ip), vehicle: methylcellulose (MC)) was 171 % of control and 173 % of control. The T/C (dose: 32.0 mg/kg/injection, schedule: Q01DX010 (oral), vehicle: saline) was 97 % of control, the T/C (dose: 42.4 mg/kg/injection, schedule: Q01DX007 (oral), vehicle: carboxymethylcellulose (CMC)) was 100 % of control and the T/C (dose: 60.0 mg/kg/injection, schedule: Q01DX Z (ip), vehicle: methylcellulose (MC)) was 174 % of control. The T/C (dose: 64.0 mg/kg/injection, schedule: Q01DX007 (oral), vehicle: carboxymethylcellulose (CMC)) was 105 % of control, the T/C (dose: 64.0 mg/kg/injection, schedule: Q01DX010 (oral), vehicle: saline) was 103 % of control and the T/C (dose: 96.0 mg/kg/injection, schedule: Q01DX007 (oral), vehicle: carboxymethylcellulose (CMC)) was 103 % of control. For the same compound, the T/C (dose: 120.0 mg/kg/injection, schedule: Q01DX Z (ip), vehicle: methylcellulose (MC)) was 108 % of control, the T/C (dose: 144.0 mg/kg/injection, schedule: Q01DX007 (oral), vehicle: carboxymethylcellulose (CMC)) was 108 % of control and the T/C (dose: 150.0 mg/kg/injection, schedule: Q01DX Z (oral), vehicle: saline) was 100 % of control. The T/C (dose: 300.0 mg/kg/injection, schedule: Q01DX Z (oral), vehicle: saline) was 93 % of control and the T/C (dose: 600.0 mg/kg/injection, schedule: Q01DX Z (oral), vehicle: saline) was 115 % of control.

`Cc1ccc(Nc2ccc(O)c3c2C(=O)c2ccccc2C3=O)c(Br)c1` was tested, and the T/C (dose: 75.0 mg/kg/injection, schedule: Q01DX001 (ip), vehicle: steriod suspending solution) was 96 % of control, the T/C (dose: 150.0 mg/kg/injection, schedule: Q01DX001 (ip), vehicle: steriod suspending solution) was 100 % of control and the T/C (dose: 300.0 mg/kg/injection, schedule: Q01DX001 (ip), vehicle: steriod suspending solution) was 93 % of control.

With `CC(C)/C([O-])=N\[N+](C)(C)Cc1ccccc1` the T/C (dose: 100.0 mg/kg/injection, schedule: Q04DX003 (ip), vehicle: saline) was 105 % of control, the T/C (dose: 200.0 mg/kg/injection, schedule: Q04DX003 (ip), vehicle: saline) was 100 % of control and the T/C (dose: 400.0 mg/kg/injection, schedule: Q04DX003 (ip), vehicle: saline) was 98 % of control.

With `FC(F)(F)c1ccc2nc(CI)c(CI)nc2c1` the T/C (dose: 6.0 mg/kg/injection, schedule: Q01DX009 (ip), vehicle: other) was 98 % of control, the T/C (dose: 12.0 mg/kg/injection, schedule: Q01DX009 (ip), vehicle: other) was 91 % of control and the T/C (dose: 12.5 mg/kg/injection, schedule: Q01DX009 (ip), vehicle: saline with Tween-80) was 88 % of control. The T/C (dose: 25.0 mg/kg/injection, schedule: Q01DX009 (ip), vehicle: other) was 95 % of control, the T/C (dose: 25.0 mg/kg/injection, schedule: Q04DX003 (ip), vehicle: other) was 94 % of control and the T/C (dose: 50.0 mg/kg/injection, schedule: Q04DX003 (ip), vehicle: other) was 87 % of control. The T/C (dose: 100.0 mg/kg/injection, schedule: Q04DX003 (ip), vehicle: other) was 97 % of control.

With `N#CC(/C=C/c1ccco1)Nc1ccccc1C(N)=O` (stereo not given) the T/C (dose: 100.0 mg/kg/injection, schedule: Q01DX009 (ip), vehicle: Klucel (hydroxypropylcellulose) (HPC)) was 121 % of control, the T/C [1] was 93 % of control and the T/C (dose: 200.0 mg/kg/injection, schedule: Q01DX009 (ip), vehicle: Klucel (hydroxypropylcellulose) (HPC)) was 121 % of control. For the same compound, the T/C [2] was 94 % of control and the T/C [3] was 100 % of control.

`C/C=C/C=C/COC(=O)CCCCCCCCC` was tested, and the T/C (dose: 100.0 mg/kg/injection, schedule: Q04DX002 (ip), vehicle: saline) was 100 % of control, the T/C (dose: 200.0 mg/kg/injection, schedule: Q04DX002 (ip), vehicle: saline) was 121 % of control and the T/C (dose: 400.0 mg/kg/injection, schedule: Q04DX002 (ip), vehicle: saline) was 108 % of control.

`COc1ccc(-n2c(C)csc2=S)cc1` was tested, and the T/C (dose: 100.0 mg/kg/injection, schedule: Q04DX003 (ip), vehicle: saline with Tween-80) was 94 % of control and the T/C (dose: 200.0 mg/kg/injection, schedule: Q04DX003 (ip), vehicle: saline with Tween-80) was 97 % of control.

In the case of `CCCC(=O)CCN(C)Cc1ccccc1`, the T/C (dose: 100.0 mg/kg/injection, schedule: Q01DX001 (ip), vehicle: saline) is reported as 103 % of control.

In the case of `COc1ccc(CCNC(=O)C(=O)NCCc2ccc(OC)c(OC)c2)cc1OC`, the T/C [1] is reported as 101 % of control, the T/C [2] is reported as 89 % of control and the T/C [3] is reported as 92 % of control.

For `O/N=C1\c2cc(Cl)ccc2-c2c(Cl)cc(Cl)cc21`, the T/C (dose: 100.0 mg/kg/injection, schedule: Q01DX001 (ip), vehicle: carboxymethylcellulose (CMC)) was 115 % of control, the T/C (dose: 200.0 mg/kg/injection, schedule: Q01DX001 (ip), vehicle: carboxymethylcellulose (CMC)) was 100 % of control and the T/C (dose: 400.0 mg/kg/injection, schedule: Q01DX001 (ip), vehicle: carboxymethylcellulose (CMC)) was 97 % of control.

For `[CH3][Sn]1([CH3])[c]2ccccc2Oc2cccc[c]21`, the T/C (dose: 100.0 mg/kg/injection, schedule: Q01DX001 (ip), vehicle: other) was 92 % of control, the T/C (dose: 200.0 mg/kg/injection, schedule: Q01DX001 (ip), vehicle: other) was 97 % of control and the T/C (dose: 400.0 mg/kg/injection, schedule: Q01DX001 (ip), vehicle: other) was 87 % of control.
